Assay results taken from PubChem BioAssay (NCI).
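These data come from cells grown in 96-well plates and exposed to compound for 48 hours at five concentrations. GI50 = concentration required for 50% inhibition of growth. TGI marks complete inhibition of growth.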

Columns and labels:
Experiment in all cases: NCI-60 cell line screen, 48 h
M14 melanoma = tested on: M14 melanoma
MDA-MB-435 = tested on: MDA-MB-435
MALME-3M melanoma = tested on: MALME-3M melanoma
NCI/ADR-RES ovarian = tested on: NCI/ADR-RES ovarian
SK-MEL-5 melanoma = tested on: SK-MEL-5 melanoma
ACHN renal = tested on: ACHN renal
HCC-2998 colon = tested on: HCC-2998 colon
OVCAR-3 ovarian = tested on: OVCAR-3 ovarian
SF-295 CNS = tested on: SF-295 CNS
SF-539 CNS = tested on: SF-539 CNS
SR leukemia = tested on: SR leukemia
U251 CNS = tested on: U251 CNS
EKVX NSCLC = tested on: EKVX NSCLC
NCI-H23 lung = tested on: NCI-H23 lung
MDA-MB-231 breast = tested on: MDA-MB-231 breast
COLO 205 colon = tested on: COLO 205 colon
786-0 renal = tested on: 786-0 renal
HOP-62 NSCLC = tested on: HOP-62 NSCLC
NCI-H522 lung = tested on: NCI-H522 lung
SF-268 CNS = tested on: SF-268 CNS
HOP-92 NSCLC = tested on: HOP-92 NSCLC
KM12 colon = tested on: KM12 colon
HL-60(TB) leukemia = tested on: HL-60(TB) leukemia
DU-145 prostate = tested on: DU-145 prostate
RXF 393 renal = tested on: RXF 393 renal
CCRF-CEM leukemia = tested on: CCRF-CEM leukemia
HCT-15 colon = tested on: HCT-15 colon
SK-MEL-2 melanoma = tested on: SK-MEL-2 melanoma
UACC-257 melanoma = tested on: UACC-257 melanoma
SK-MEL-28 melanoma = tested on: SK-MEL-28 melanoma
TK-10 renal = tested on: TK-10 renal
A549 NSCLC = tested on: A549 NSCLC
NCI-H460 lung = tested on: NCI-H460 lung
UACC-62 melanoma = tested on: UACC-62 melanoma
NCI-H226 lung = tested on: NCI-H226 lung
LOX IMVI melanoma = tested on: LOX IMVI melanoma
T-47D breast = tested on: T-47D breast
HS 578T breast = tested on: HS 578T breast
SW-620 colon = tested on: SW-620 colon
A498 renal = tested on: A498 renal
MCF7 breast = tested on: MCF7 breast
SNB-19 CNS = tested on: SNB-19 CNS
OVCAR-4 ovarian = tested on: OVCAR-4 ovarian
CAKI-1 renal = tested on: CAKI-1 renal
RPMI-8226 leukemia = tested on: RPMI-8226 leukemia
HCT-116 colon = tested on: HCT-116 colon
SNB-75 CNS = tested on: SNB-75 CNS
PC-3 prostate = tested on: PC-3 prostate
IGROV1 ovarian = tested on: IGROV1 ovarian
OVCAR-5 ovarian = tested on: OVCAR-5 ovarian
BT-549 breast = tested on: BT-549 breast
MOLT-4 leukemia = tested on: MOLT-4 leukemia
K-562 leukemia = tested on: K-562 leukemia
SN12C renal = tested on: SN12C renal
OVCAR-8 ovarian = tested on: OVCAR-8 ovarian
UO-31 renal = tested on: UO-31 renal
SK-OV-3 ovarian = tested on: SK-OV-3 ovarian

SMILES: C[C@H]1CCC/C=C/[C@@H]2C[C@H](O)C[C@H]2[C@H](O)[C@@H](S(=O)C[C@@H](N)C(=O)O)CC(=O)O1 (stereo partly drawn)
- GI50 (M14 melanoma): 42.9 nM
- TGI (M14 melanoma): > 100000 nM
- GI50 (MDA-MB-435): 48 nM
- TGI (MDA-MB-435): > 100000 nM
- TGI (MALME-3M melanoma): 25.7 nM
- GI50 (NCI/ADR-RES ovarian): < 16.5 nM
- TGI (NCI/ADR-RES ovarian): 384 nM
- GI50 (SK-MEL-5 melanoma): 20.9 nM
- TGI (SK-MEL-5 melanoma): 107 nM
- GI50 (ACHN renal): 83.3 nM
- TGI (ACHN renal): 669 nM
- GI50 (HCC-2998 colon): 30.3 nM
- TGI (HCC-2998 colon): 256 nM
- GI50 (OVCAR-3 ovarian): 42.5 nM
- GI50 (SF-295 CNS): 109 nM
- TGI (SF-295 CNS): > 100000 nM
- GI50 (SF-539 CNS): 35.8 nM
- TGI (SF-539 CNS): > 100000 nM
- GI50 (SR leukemia): 82 nM
- GI50 (U251 CNS): 70.9 nM
- TGI (U251 CNS): > 100000 nM
- GI50 (EKVX NSCLC): 84.2 nM
- TGI (EKVX NSCLC): > 52300 nM
- GI50 (NCI-H23 lung): 86.2 nM
- TGI (NCI-H23 lung): 8130 nM
- GI50 (MDA-MB-231 breast): 25.1 nM
- TGI (MDA-MB-231 breast): 52.8 nM
- GI50 (COLO 205 colon): 14.4 nM
- TGI (COLO 205 colon): 29.3 nM
- GI50 (786-0 renal): < 18.1 nM
- GI50 (HOP-62 NSCLC): 241 nM
- TGI (HOP-62 NSCLC): > 100000 nM
- GI50 (NCI-H522 lung): 175 nM
- TGI (NCI-H522 lung): 870 nM
- GI50 (SF-268 CNS): 20.7 nM
- TGI (SF-268 CNS): > 19900 nM
- GI50 (HOP-92 NSCLC): 42.8 nM
- TGI (HOP-92 NSCLC): 1650 nM
- GI50 (KM12 colon): < 14 nM
- TGI (KM12 colon): 60.5 nM
- GI50 (HL-60(TB) leukemia): 142 nM
- GI50 (DU-145 prostate): 434 nM
- TGI (DU-145 prostate): > 100000 nM
- GI50 (RXF 393 renal): 20200 nM
- TGI (RXF 393 renal): 86700 nM
- GI50 (CCRF-CEM leukemia): 50.8 nM
- TGI (CCRF-CEM leukemia): 50200 nM
- GI50 (HCT-15 colon): 137 nM
- TGI (HCT-15 colon): 2260 nM
- GI50 (SK-MEL-2 melanoma): 1290 nM
- GI50 (UACC-257 melanoma): < 18.2 nM
- TGI (UACC-257 melanoma): > 100000 nM
- GI50 (SK-MEL-28 melanoma): 29.1 nM
- TGI (SK-MEL-28 melanoma): > 100000 nM
- GI50 (TK-10 renal): 199 nM
- TGI (A549 NSCLC): > 100000 nM
- GI50 (NCI-H460 lung): 245 nM
- TGI (NCI-H460 lung): > 100000 nM
- GI50 (UACC-62 melanoma): 29.7 nM
- TGI (UACC-62 melanoma): > 100000 nM
- GI50 (NCI-H226 lung): 19.3 nM
- GI50 (LOX IMVI melanoma): 20.3 nM
- TGI (LOX IMVI melanoma): 63.6 nM
- GI50 (T-47D breast): 244 nM
- TGI (T-47D breast): 992 nM
- GI50 (HS 578T breast): 15.2 nM
- TGI (HS 578T breast): > 100000 nM
- GI50 (SW-620 colon): 53.3 nM
- GI50 (A498 renal): 30.9 nM
- TGI (A498 renal): 149 nM
- GI50 (MCF7 breast): 30.3 nM
- TGI (SNB-19 CNS): > 100000 nM
- GI50 (OVCAR-4 ovarian): 44.5 nM
- TGI (OVCAR-4 ovarian): > 75000 nM
- GI50 (CAKI-1 renal): 210 nM
- GI50 (RPMI-8226 leukemia): 395 nM
- TGI (RPMI-8226 leukemia): > 95300 nM
- GI50 (HCT-116 colon): 32.5 nM
- TGI (HCT-116 colon): 1690 nM
- TGI (SNB-75 CNS): 19.4 nM
- TGI (PC-3 prostate): > 26200 nM
- GI50 (IGROV1 ovarian): 238 nM
- TGI (IGROV1 ovarian): 19100 nM
- GI50 (OVCAR-5 ovarian): > 100000 nM
- TGI (OVCAR-5 ovarian): > 100000 nM
- GI50 (BT-549 breast): 86.2 nM
- TGI (BT-549 breast): > 100000 nM
- GI50 (MOLT-4 leukemia): 46.4 nM
- GI50 (K-562 leukemia): 884 nM
- TGI (K-562 leukemia): > 100000 nM
- GI50 (SN12C renal): 156 nM
- TGI (SN12C renal): 1830 nM
- GI50 (OVCAR-8 ovarian): 32.3 nM
- TGI (OVCAR-8 ovarian): 2840 nM
- GI50 (UO-31 renal): 37 nM
- TGI (UO-31 renal): 1620 nM
- GI50 (SK-OV-3 ovarian): 117 nM
- TGI (SK-OV-3 ovarian): > 82800 nM
